Measurements from patent US20060148858A1, “1, 2-Azole derivatives with hypoglycemic and hypolipidemic activity” (priority 2002, published 2006).

Key:
PPARδ-RXRα heterodimer = biological target: T1, PPARδ-RXRα heterodimer (Homo sapiens, UniProt Q03181); assay: PPARδ-RXRα heterodimer ligand activity, luciferase reporter in COS-1 transformant (Test Example 4); format: cell-based; details: COS-1 transformant (hPPARδ, hRXRα, reporter), 36-48 hours, concentration for 50% of the maximum fold induction
T1 construct: expressed in transfected cells; host or cells: COS-1
T1 sequence (Q03181 1-441): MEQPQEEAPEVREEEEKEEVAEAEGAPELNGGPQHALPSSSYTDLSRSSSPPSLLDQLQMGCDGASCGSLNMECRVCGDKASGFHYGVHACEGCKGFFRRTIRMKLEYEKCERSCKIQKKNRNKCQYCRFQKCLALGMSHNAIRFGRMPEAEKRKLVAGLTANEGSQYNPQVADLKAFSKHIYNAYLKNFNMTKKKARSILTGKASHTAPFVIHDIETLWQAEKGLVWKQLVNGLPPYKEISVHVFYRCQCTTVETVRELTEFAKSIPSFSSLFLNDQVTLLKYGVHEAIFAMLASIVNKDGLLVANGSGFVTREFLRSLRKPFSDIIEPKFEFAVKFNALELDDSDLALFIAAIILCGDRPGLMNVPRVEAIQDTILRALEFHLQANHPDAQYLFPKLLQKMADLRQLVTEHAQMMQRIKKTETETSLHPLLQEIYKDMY
T1 sequence (P19793 1-462 partner): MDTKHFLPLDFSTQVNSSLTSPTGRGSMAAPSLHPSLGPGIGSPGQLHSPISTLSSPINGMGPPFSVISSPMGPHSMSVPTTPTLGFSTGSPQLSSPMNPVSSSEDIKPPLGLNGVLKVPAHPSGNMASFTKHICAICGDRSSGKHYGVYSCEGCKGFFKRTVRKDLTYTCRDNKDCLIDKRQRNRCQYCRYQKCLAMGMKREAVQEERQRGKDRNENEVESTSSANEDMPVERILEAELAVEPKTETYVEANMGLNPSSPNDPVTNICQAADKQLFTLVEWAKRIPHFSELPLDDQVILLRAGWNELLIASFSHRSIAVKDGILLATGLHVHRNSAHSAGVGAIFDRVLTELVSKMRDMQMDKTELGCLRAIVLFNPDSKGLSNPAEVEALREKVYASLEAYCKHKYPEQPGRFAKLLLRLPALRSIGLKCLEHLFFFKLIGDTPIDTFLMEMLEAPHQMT
Procedure: The transformant obtained in Reference Example 9a was suspended in DMEM medium (produced by Life Technologies, Inc., USA) containing 0.1% fatty acid-free bovine serum albumin (BSA) (produced by Wako Pure Chemical Industries, Ltd.), and inoculate to each well of a 96-well white plate (produced by Corning Costar Corporation, USA) by 80 μl at 1×10^4 cells/well. Then the test compound (20 μl) was added and cultured at 37° C. under 5% CO2 for 36-48 hours. After removing the medium from the 96-well white plate, 40 μl of PIKKAGENE LT 7.5 (produced by Wako Pure Chemical Industries, Ltd.) diluted twice with HBSS (HANKS' BALANCED SALT SOLUTION)(produced by BIO WHITTAKER Inc., USA), was added. After stirring, the luciferase activity was determined using 1420 ARVO Multilabel Counter (produced by PerkinElmer Inc., USA).
A fold induction was calculated based on the luciferase activity of each test compound by taking the luciferase activity in the non-treatment group as 1. The values of the test compound concentration and the fold induction were analyzed using PRISM (produced by GraphPad Software Inc. USA) to calculate the EC50 values, the effective concentration of a test compound for 50% of the maximum fold induction.
COS-1 cells were inoculated to a 150 cm^2 cell culture flask (produced by Corning Costar Corporation, USA) at the density of 5×10^6 cells/50 ml, and cultured at 37° C. under 5% CO2 conditions for 24 hours. Subsequently, a DNA was introduced into the cell under the condition shown below using Lipofectamine (produced by Invitrogen, USA).
First, Lipofectamine (125 μl), PLUS Reagent (100 μl, produced by Invitrogen, USA), plasmid pMCMVneo-hPPARδ (2.5 μg) obtained in Reference Example 3a, plasmid pMCMVneo-hRXRα (2.5 μg) obtained in Reference Example 4a and reporter plasmid pGL3-4ERPP-TK neo (5 μg) obtained in Reference Example 5a, and pRL-tk (5 μg, produced by Promega, USA) were mixed with opti-MEM (5 ml, produced by Invitrogen, USA) to give a transfection mixture.
Then, the above-mentioned transfection mixture and opti-MEM (20 ml) were added to COS-1 cells washed with opti-MEM, and the cells were cultured at 37° C. under 5% CO2 conditions for 3 hours. DMEM medium (25 ml, produced by Life Technologies, Inc., USA) containing 0.1% fatty acid-free bovine serum albumin (BSA) (produced by Wako Pure Chemical Industries, Ltd.) was added to the obtained COS-1 cells, and the cells were cultured at 37° C. under 5% CO2 conditions for 18-24 hours to give a transformant.

| Structure (SMILES) | melting point [°C] | EC50 (PPARδ-RXRα heterodimer) [nM] |
| --- | --- | --- |
| CCCc1nn(-c2ccc(C(F)(F)F)cn2)cc1CCCOc1cccc(CC(=O)O)c1 [Example 44, [3-(3-{3-propyl-1-[5-(trifluoromethyl)-2-pyridyl]-1H-pyrazol-4-yl}propoxy)phenyl]acetic acid] | 106 to 107 | 3.9 |
| CCCc1nn(-c2ccc(C(F)(F)F)cn2)cc1CCCOc1ccc(CC(=O)O)cc1 [Example 46, [4-(3-{3-propyl-1-[5-(trifluoromethyl)-2-pyridyl]-1H-pyrazol-4-yl}propoxy)phenyl]acetic acid] | 101 to 102 | 6.4 |
| CC(C)c1nn(-c2ccc(C(F)(F)F)cn2)cc1CCCCOc1cc(CCC(=O)O)n(-c2ccccc2)n1 [Example 49, 3-[3-(4-{3-isopropyl-1-[5-(trifluoromethyl)-2-pyridinyl]-1H-pyrazol-4-yl}butoxy)-1-phenyl-1H-pyrazol-5-yl]propanoic acid] | 137 to 138 | 1.7 |
| CCOc1nn(-c2ccc(C(F)(F)F)cn2)cc1CCOc1cc(CCC(=O)O)n(-c2ccccc2)n1 [Example 56, 3-[3-(2-{3-ethoxy-1-[5-(trifluoromethyl)-2-pyridinyl]-1H-pyrazol-4-yl}ethoxy)-1-phenyl-1H-pyrazol-5-yl]propanoic acid] | 155 to 156 | 2.8 |
| CCCc1nn(-c2ccc(C(F)(F)F)cn2)cc1CCCCOc1cccc(CC(=O)O)c1 [Example 59, [3-(4-{3-propyl-1-[5-(trifluoromethyl)-2-pyridinyl]-1H-pyrazol-4-yl}butoxy)phenyl]acetic acid] | 96 to 97 | 9.7 |
| CCOc1nn(-c2ccc(C(F)(F)F)cn2)cc1CCOc1cccc(CC(=O)O)c1 [Example 62, [3-(2-{3-ethoxy-1-[5-(trifluoromethyl)-2-pyridinyl]-1H-pyrazol-4-yl}ethoxy)phenyl]acetic acid] | 128 to 130 | 0.81 |
| CCCc1nn(-c2ccc(C(F)(F)F)cn2)cc1CCCCOc1cc(CC(=O)O)ccc1OC [Example 63, [4-methoxy-3-(4-{3-propyl-1-[5-(trifluoromethyl)-2-pyridinyl]-1H-pyrazol-4-yl}butoxy)phenyl]acetic acid] | 147 to 148 | 9.5 |
| CCCc1nn(-c2ccc(C(F)(F)F)cn2)cc1CCCOc1ccc(CCC(=O)O)c(C)c1 [Example 65, 3-[2-methyl-4-(3-{3-propyl-1-[5-(trifluoromethyl)-2-pyridinyl]-1H-pyrazol-4-yl}propoxy)phenyl]propanoic acid] | 124 to 126 | 1.8 |
| CCOc1nn(-c2ccc(C(F)(F)F)cn2)cc1CCOc1ccc(CCC(=O)O)c(OC)c1 [Example 75, 3-[4-(2-{3-ethoxy-1-[5-(trifluoromethyl)-2-pyridinyl]-1H-pyrazol-4-yl}ethoxy)-2-methoxyphenyl]propanoic acid] | 147 to 148 | 3.8 |
| CCOc1nn(-c2ccc(C(F)(F)F)cn2)cc1CCOc1ccc(CCC(=O)O)c(C)c1 [Example 76, 3-[4-(2-{3-ethoxy-1-[5-(trifluoromethyl)-2-pyridinyl]-1H-pyrazol-4-yl}ethoxy)-2-methylphenyl]propanoic acid] | 117 to 119 | 1.9 |
| CCCCOc1cc(OCCCc2cn(-c3ccc(C(F)(F)F)cn3)nc2OCC)ccc1CCC(=O)O [Example 118, 3-[2-butoxy-4-{3-(3-ethoxy-1-[5-(trifluoromethyl)-2-pyridinyl]-1H-pyrazol-4-yl}propoxy)phenyl]propanoic acid] | 123 to 124 | 7.2 |

Continued, values first:

| melting point [°C] | EC50 (PPARδ-RXRα heterodimer) [nM] | Structure (SMILES) |
| --- | --- | --- |
| 120 to 121 | 6 | CCOc1nn(-c2ccc(C(F)(F)F)cn2)cc1CCCOc1ccc(CCC(=O)O)c(OC)c1 [Example 85, 3-[4-(3-{3-ethoxy-1-[5-(trifluoromethyl)-2-pyridyl]-1H-pyrazol-4-yl}propoxy)-2-methoxyphenyl]propionic acid] |
| 114 to 115 | 1.5 | CCCc1nn(-c2ccc(C(F)(F)F)cn2)cc1CCCOc1ccc(CCC(=O)O)c(OC)c1 [Example 86, 3-[2-methoxy-4-(3-{3-propyl-1-[5-(trifluoromethyl)-2-pyridyl]-1H-pyrazol-4-yl}propoxy)phenyl]propionic acid] |
| 88 to 89 | 6 | CCCc1nn(-c2ccc(C(F)(F)F)cn2)cc1CCCOc1cc(CC(=O)O)ccc1F [Example 91, [4-fluoro-3-(3-{3-propyl-1-[5-(trifluoromethyl)-2-pyridyl]-1H-pyrazol-4-yl}propoxy)phenyl]acetic acid] |
| 98 to 99 | 1.9 | CCCc1nn(-c2ccc(C(F)(F)F)cn2)cc1CCCOc1cc(CCC(=O)O)cc(OC)c1 [Example 92, 3-[3-methoxy-5-(3-{3-propyl-1-[5-(trifluoromethyl)-2-pyridyl]-1H-pyrazol-4-yl}propoxy)phenyl]propionic acid] |
| 134 to 135 | 4 | CCCc1nn(-c2ccc(C(F)(F)F)cn2)cc1CCCOc1ccc(CC(=O)O)c(C)c1 [Example 94, [2-methyl-4-(3-{3-propyl-1-[5-(trifluoromethyl)-2-pyridyl]-1H-pyrazol-4-yl}propoxy)phenyl]acetic acid] |
| 126 to 127 | 1.7 | CCCc1nn(-c2ccc(C(F)(F)F)cn2)cc1CCCOc1ccc(CCC(=O)O)cc1OC [Example 96, 3-[3-methoxy-4-(3-{3-propyl-1-[5-(trifluoromethyl)-2-pyridyl]-1H-pyrazol-4-yl}propoxy)phenyl]propionic acid] |
| 135 to 136 | 0.55 | CCOc1cc(OCCCc2cn(-c3ccc(C(F)(F)F)cn3)nc2-c2ccccc2)ccc1CCC(=O)O [Example 99, 3-[2-ethoxy-4-(3-{3-phenyl-1-[5-(trifluoromethyl)-2-pyridinyl]-1H-pyrazol-4-yl}propoxy)phenyl]propanoic acid] |
| 126 to 127 | 6.1 | CCOc1nn(-c2ccc(C(F)(F)F)cc2)cc1CCCOc1cc(CCC(=O)O)n(-c2ccccc2)n1 [Example 111, 3-[3-(3-{3-ethoxy-1-[4-(trifluoromethyl)phenyl]-1H-pyrazol-4-yl}propoxy)-1-phenyl-1H-pyrazol-5-yl]propanoic acid] |
| 108 to 109 | 4.8 | CCOc1nn(-c2ccc(C(F)(F)F)cc2)cc1CCCOc1cccc(CC(=O)O)c1 [Example 113, [3-(3-{3-ethoxy-1-[4-(trifluoromethyl)phenyl]-1H-pyrazol-4-yl}propoxy)phenyl]acetic acid] |
| 126 to 127 | 1.6 | CCCOc1cc(OCCCc2cn(-c3ccc(C(F)(F)F)cn3)nc2OCC)ccc1CCC(=O)O [Example 117, 3-[4-(3-{3-ethoxy-1-[5-(trifluoromethyl)-2-pyridinyl]-1H-pyrazol-4-yl}propoxy)-2-propoxyphenyl]propanoic acid] |
